Reference: ChEMBL document CHEMBL1201862, “PubChem BioAssay data set” (2004)
The source made the active and inactive calls.

Key:
NADPH oxidase 1 = NADPH oxidase 1 (Homo sapiens, UniProt Q9Y5S8); type: functional, cell-based;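 further: Cell-based assay with luminescence read-out, IC50 derived from inhibitor dose-response curves; intracellular ROS from endogenous NOX1 in intact HT29 colon cancer cells; potency of inhibitors that lower the ROS luminescence signal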
[1] = molecular target: Inward rectifier potassium channel 2 (Mus musculus, UniProt P35561); experiment: Manual electrophysiological patch clamp assay for SAR compounds that inhibit/block inward-rectifying potassium ion channel Kir2.1. [Related pubchem assays: 1843 (Summary assay for Kir2.1 inhibitor assays.), 1672 (Primary HTS of 305616 compounds where 2592 were identified as active.)]; type: functional
Protein Wnt-3a = Protein Wnt-3a (Mus musculus, UniProt P27467); experiment: antagonism of Wnt3a pathway luciferase reporter – Wnt-LIGHT cells, luminescence, selectivity assay for Gli-SUFU antagonist project, dose response (AID 651570); type: functional; details: read-out: IC50_Mean;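 further: Wnt-LIGHT reporter cells stimulated with conditioned medium from Wnt3a-producing cells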
[2] = HEK-293T cell viability reduction – luminescence, B-cell screen hits, cytotoxicity control for BCR NF-kB inhibitor project, dose response (AID 489021); type: functional, cell-based;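 further: HEK-293T cells carrying an NF-kB luciferase reporter; cells exposed to compound for about 14 hours before viability readout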
[3] = Trypanosoma cruzi growth suppression in host cells – NIH3T3 host cells, beta-gal luminescence, confirmation (AID 2044); type: functional, cell-based;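 further: intracellular parasites grown in NIH/3T3 mouse fibroblasts as host cells; luminescent beta-galactosidase reporter signal from transgenic T. cruzi replicating inside host cells; inhibitors lower the luminescence signal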
[4] = NIH3T3 cell viability loss – ATP luminescence, mouse fibroblasts, counter-screen, dose response (AID 2010); type: functional, cell-based;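 further: cells exposed to compound for about 90 hours before reading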
[5] = molecular target: T1, Neuropeptide Y receptor type 1 (Homo sapiens, UniProt P25929); experiment: IC50 of human NPY-Y1 blockers – cell-based, dose response (AID 1277); type: functional
T1 sequence (P25929 whole entry): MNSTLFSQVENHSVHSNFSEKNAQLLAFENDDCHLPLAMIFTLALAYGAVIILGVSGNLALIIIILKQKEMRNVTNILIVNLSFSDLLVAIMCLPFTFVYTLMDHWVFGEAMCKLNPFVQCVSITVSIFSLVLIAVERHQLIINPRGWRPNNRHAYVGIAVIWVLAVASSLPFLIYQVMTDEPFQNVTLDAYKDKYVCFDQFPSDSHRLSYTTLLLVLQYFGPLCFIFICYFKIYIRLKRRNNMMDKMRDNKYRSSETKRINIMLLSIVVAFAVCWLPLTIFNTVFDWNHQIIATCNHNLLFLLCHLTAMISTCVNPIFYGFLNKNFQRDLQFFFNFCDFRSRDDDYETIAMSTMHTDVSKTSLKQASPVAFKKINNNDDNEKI

Galanin receptor type 3 = molecular target: T2, Galanin receptor type 3 (Homo sapiens, UniProt O60755); experiment: Fluorescence-based cell-based primary high throughput dose response assay to identify antagonists of the Galanin Receptor 3 (GalR3).; type: functional
T2 sequence (O60755 whole entry): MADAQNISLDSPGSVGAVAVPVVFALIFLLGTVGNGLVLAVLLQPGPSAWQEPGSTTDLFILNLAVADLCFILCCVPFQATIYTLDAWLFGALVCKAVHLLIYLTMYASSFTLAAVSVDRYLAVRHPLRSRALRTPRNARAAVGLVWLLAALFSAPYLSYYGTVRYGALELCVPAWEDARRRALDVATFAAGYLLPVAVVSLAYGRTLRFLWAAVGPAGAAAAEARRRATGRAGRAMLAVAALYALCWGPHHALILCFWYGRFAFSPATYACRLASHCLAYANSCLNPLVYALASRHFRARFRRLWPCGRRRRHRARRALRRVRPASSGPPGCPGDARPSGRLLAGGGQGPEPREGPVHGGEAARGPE

INS1 = experiment: INS-1E survival protection against cytokine death – cell-based, luminescence, retest, dose response (AID 449756); type: functional; details: Rattus norvegicus;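 further: cell death triggered by IL-1 beta plus TNF-alpha plus IFN-gamma mixture; protective hits raise ATP signal compared with cytokine alone wells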
cells = type: functional, cell-based; details: HEK-CNG
[6] = NIH-3T3 fibroblast cytotoxicity, dose response, cytotoxicity control, cell-based, fluorescence, Alamar Blue, secondary assay (AID 2327); type: functional;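 further: NIH-3T3 mouse fibroblasts cultured with fluconazole at 8 µg/mL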
[7] = molecular target: T3, Neuropeptide Y receptor type 2 (Homo sapiens, UniProt P49146); experiment: IC50 for human NPY-Y2 blockade – cell-based, counter-screen for NPY-Y1 antagonist project, dose response (AID 1278); type: functional
T3 sequence (P49146 whole entry): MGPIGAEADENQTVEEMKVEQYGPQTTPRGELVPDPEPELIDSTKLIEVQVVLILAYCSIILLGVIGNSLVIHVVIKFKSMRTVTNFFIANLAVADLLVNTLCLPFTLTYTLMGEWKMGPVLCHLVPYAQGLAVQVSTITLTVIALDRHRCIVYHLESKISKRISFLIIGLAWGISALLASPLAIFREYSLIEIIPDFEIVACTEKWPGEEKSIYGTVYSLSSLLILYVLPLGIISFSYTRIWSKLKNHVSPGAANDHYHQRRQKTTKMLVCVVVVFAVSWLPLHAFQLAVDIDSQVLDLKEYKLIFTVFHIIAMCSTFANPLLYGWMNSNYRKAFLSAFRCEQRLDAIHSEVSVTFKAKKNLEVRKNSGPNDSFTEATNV

[8] = molecular target: T4, Zinc finger protein mex-5 (Caenorhabditis elegans, UniProt Q9XUB2); experiment: potency of MEX-5 RNA-binding blockers – biochemical, C. elegans, fluorescence polarization, dose response (AID 1960)
T4 sequence (Q9XUB2 whole entry): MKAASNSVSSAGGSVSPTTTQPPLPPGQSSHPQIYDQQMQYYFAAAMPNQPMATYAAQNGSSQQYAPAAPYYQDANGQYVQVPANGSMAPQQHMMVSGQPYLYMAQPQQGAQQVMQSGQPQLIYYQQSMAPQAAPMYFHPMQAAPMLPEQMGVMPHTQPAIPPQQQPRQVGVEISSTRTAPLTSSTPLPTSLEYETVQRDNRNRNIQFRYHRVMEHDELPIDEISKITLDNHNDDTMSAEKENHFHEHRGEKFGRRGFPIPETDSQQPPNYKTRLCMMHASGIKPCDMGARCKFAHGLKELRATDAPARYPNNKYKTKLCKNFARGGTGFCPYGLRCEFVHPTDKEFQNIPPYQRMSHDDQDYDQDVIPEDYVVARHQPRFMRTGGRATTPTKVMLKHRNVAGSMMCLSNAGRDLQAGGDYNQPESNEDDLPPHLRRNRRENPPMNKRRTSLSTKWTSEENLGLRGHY

Estrogen receptor = Estrogen receptor (Homo sapiens, UniProt P03372);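 further: potency for inhibiting coactivator peptide recruitment to the receptor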
Sequence of Estrogen receptor (P03372 whole entry): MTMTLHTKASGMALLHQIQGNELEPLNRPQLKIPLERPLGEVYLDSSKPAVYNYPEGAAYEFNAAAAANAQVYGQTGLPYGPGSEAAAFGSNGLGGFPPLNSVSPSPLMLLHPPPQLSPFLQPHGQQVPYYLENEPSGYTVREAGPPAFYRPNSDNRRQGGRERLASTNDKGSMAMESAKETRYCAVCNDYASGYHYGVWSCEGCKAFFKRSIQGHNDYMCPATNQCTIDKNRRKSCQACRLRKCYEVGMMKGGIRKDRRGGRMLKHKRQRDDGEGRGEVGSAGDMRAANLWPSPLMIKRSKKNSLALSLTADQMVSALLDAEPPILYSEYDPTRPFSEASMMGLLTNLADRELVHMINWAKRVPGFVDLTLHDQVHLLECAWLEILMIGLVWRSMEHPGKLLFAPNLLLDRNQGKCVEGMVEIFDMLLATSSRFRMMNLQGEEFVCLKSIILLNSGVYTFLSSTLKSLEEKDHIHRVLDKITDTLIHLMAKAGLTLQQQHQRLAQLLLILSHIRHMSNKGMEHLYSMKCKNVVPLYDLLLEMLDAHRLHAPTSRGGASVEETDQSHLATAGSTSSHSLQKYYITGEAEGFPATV

Sequence of Inward rectifier potassium channel 2 (P35561 whole entry): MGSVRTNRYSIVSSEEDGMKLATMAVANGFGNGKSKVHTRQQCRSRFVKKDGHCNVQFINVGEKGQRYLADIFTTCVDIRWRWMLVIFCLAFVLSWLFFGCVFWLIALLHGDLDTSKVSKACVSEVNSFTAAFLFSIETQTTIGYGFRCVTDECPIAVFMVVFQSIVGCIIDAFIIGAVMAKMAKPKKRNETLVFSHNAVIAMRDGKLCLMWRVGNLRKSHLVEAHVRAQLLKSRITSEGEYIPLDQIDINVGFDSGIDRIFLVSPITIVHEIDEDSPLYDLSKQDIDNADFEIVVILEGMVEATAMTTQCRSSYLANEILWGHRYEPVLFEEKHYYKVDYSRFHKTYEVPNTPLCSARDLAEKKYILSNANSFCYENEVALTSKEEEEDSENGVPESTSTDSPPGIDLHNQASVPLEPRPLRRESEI
Sequence of NADPH oxidase 1 (Q9Y5S8 whole entry): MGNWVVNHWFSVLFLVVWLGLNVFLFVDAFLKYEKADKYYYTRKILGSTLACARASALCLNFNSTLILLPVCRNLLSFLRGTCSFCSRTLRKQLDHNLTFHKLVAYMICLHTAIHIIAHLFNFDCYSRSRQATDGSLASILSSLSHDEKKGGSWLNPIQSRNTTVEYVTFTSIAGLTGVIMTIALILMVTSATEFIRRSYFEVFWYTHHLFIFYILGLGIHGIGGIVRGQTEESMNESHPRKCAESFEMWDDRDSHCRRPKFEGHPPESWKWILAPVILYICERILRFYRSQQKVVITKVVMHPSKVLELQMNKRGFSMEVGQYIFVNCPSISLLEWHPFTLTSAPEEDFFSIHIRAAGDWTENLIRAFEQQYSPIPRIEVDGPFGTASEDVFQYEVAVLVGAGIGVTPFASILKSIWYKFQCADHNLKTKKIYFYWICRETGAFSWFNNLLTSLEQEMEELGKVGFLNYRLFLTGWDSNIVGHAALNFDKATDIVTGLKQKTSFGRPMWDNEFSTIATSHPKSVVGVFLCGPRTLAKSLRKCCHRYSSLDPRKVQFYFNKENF
Sequence of Protein Wnt-3a (P27467 whole entry): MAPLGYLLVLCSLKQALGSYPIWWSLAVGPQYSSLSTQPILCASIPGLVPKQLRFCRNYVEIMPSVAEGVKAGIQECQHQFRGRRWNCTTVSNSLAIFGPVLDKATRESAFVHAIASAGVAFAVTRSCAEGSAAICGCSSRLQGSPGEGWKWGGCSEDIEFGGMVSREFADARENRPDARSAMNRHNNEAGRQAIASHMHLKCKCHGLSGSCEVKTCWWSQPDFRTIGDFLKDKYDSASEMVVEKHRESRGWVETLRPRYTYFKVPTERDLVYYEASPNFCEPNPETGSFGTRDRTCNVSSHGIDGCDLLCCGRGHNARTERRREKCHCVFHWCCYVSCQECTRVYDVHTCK

For `CC(O)c1ccc2c(c1)Nc1ccccc1S2` (centres undefined), the IC50 (NADPH oxidase 1) was 0.363 µM (active).

In the case of `COc1ccc(CNCc2ccc(OC(F)(F)F)cc2)cc1`, the IC50 [1] is reported as 1.64 µM (active).

In the case of `COc1ccc(-[n+]2c(-c3ccc(Cl)cc3)cn3c2CCc2ccccc2-3)cc1`, the IC50 (Protein Wnt-3a) is reported as 25.6 µM (inactive), the IC50 [2] is reported as > 80 µM (inactive) and the EC50 [3] is reported as 0.24 µM (active). The EC50 [4] was > 60 µM (not active), the IC50 [5] was 7.36 µM (active) and the IC50 (Galanin receptor type 3) was 5.02 µM (active). For the same compound, the AC50 (INS1) was 2.08 µM (active), the EC50 (cells) was > 29.9 µM (inactive) and the EC50 [6] was > 150 µM (inactive). The IC50 [7] was 10.3 µM (not active).

In the case of `Cc1cc(/C=C2/C(=O)NC(=O)N(c3ccccc3)C2=O)c(C)n1-c1ccc(F)cc1`, the EC50 [8] is reported as 77.3 µM (active) and the IC50 (Estrogen receptor) is reported as > 50 µM (not active).
